Experimental data from patent publication US7713968B2, “Substituted arylcyclopentenes as therapeutic agents” (Allergan, Inc., priority 2008, dated 2010).

System: lashes and adjacent hairs of the treated eye
Experiment: Observation of lashes in glaucoma patients treated with bimatoprost in one eye
Format: in vivo
Conditions: glaucoma patient treated in only one eye
Source text: In the course of treating patients having glaucoma, treatment may only be appropriate in one eye. […] The lash appearance on the lids of the treated eyes would have appeared quite attractive if it represented a bilateral phenomenon. As a result of its asymmetric nature, the long lashes on one side could be construed as disturbing from a cosmetic standpoint. A systemic examination was preformed as a result of the asymmetric phenomenon. It soon became apparent that this altered appearance was not an isolated finding. […] Definite differences could be identified to varying degrees in the lashes and adjacent hairs of all patients who were taking the drug on a unilateral basis for longer than 6 months.
The changes in the lashes were apparent on gross inspection in several patients once attention was focused on the issue. In those with light colored hair and lashes, the differences were only seen easily with the aid of the high magnification and lighting capabilities of the slit lamp biomicroscope. In the course of glaucoma follow-up examination, attention is generally immediately focused on the eye itself. As a result of the high power magnification needed only one eye is seen at a time and the eye is seen at a high enough power that the lashes are not in focus. […]

**Q.** How did the “lashes in the treated eye compared with the non-treated eye” value turn out when `CCNC(=O)CCC/C=C\C[C@@H]1[C@@H](/C=C/[C@@H](O)CCc2ccccc2)[C@H](O)C[C@@H]1O` [bimatoprost] was run?
**A.** longer, thicker, and fuller
